# Measurements as given in patent publication US7323303B2, “Modified β-lactamases and uses thereof” (priority 2003, dated 2008).
# Key:
# Assay type in all cases: biochemical
# [1] = molecular target: T1, E166Cf enzyme (Bacillus cereus, UniProt P00809, E185C); experiment: Time-resolved fluorescence of E166Cf enzyme with penicillins and cephalosporins; conditions: E166Cf 1.2×10^−7 M
# T1 construct: made in house; host or cells: B. subtilis 1A304 (φ105MU331); then labelled chemically
# T1 sequence (P00809 28-306 E185C): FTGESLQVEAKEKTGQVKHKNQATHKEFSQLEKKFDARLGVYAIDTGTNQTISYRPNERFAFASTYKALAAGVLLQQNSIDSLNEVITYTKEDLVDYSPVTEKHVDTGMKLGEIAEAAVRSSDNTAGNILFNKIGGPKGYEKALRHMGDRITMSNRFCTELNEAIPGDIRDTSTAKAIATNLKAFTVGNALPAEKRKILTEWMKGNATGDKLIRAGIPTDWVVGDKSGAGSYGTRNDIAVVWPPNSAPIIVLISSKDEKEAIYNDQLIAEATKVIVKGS
# Experimental: Fluorescence measurements of the E166Cf enzyme in the presence of penicillin G, penicillin V, ampicillin, cefuroxime, cefoxitin and moxalactam were performed on a Perkin Elmer LS50B spectrofluorometer. For time-resolved fluorescence measurement, excitation and emission wavelengths were set at 494 and 515 nm respectively. Both excitation and emission slit widths were set at 5 nm. All fluorescence measurements were performed at room temperature.
# With penicillin G as substrate, the fluorescence signal of the E166Cf enzyme (1.2×10^−7 M) at 515 nm in 50 mM phosphate buffer (pH 7.0) increases as a function of the antibiotic concentration (FIG. 4). The time-resolved fluorescence signals of the E166Cf enzyme at 515 nm were also measured with various concentrations of penicillin G (FIG. 5). At low antibiotic concentration (1.0×10^−7 and 1.0×10^−6 M), the fluorescence intensity of the E166Cf enzyme increases gradually and then declines. At high antibiotic concentration (1.0×10^−5 and 1.0×10^−4 M), the fluorescence signal increases instantaneously and levels off to a plateau. The fluorescence signal stays at the plateau for a certain length of time and then declines afterwards. Similar results were obtained with penicillin V and ampicillin (FIGS. 6 and 7).
# With cefuroxime, cefoxitin and moxalactam as substrates, the fluorescence intensities of the E166Cf enzyme (1.2×10^−7 M) at 515 nm in 50 mM phosphate buffer (pH 7.0) also increase as a function of antibiotic concentration (FIGS. 8 to 10).
# (§1) At high substrate concentration (1.0×10^−5 and 1.0×10^−4 M), the penicillin substrates rapidly occupy the active sites to form the ES complexes, thus switching on the fluorescence of the fluorescein labels instantaneously. […] This can be verified by the fact that the ‘plateau time’ (8 and 22 min for 1.0×10^−5 and 1.0×10^−4 M penicillin G respectively) is consistent with the ‘substrate hydrolysis time’ determined by spectrophotometric assays (7 and 20 min for 1.0×10^−5 and 1.0×10^−4 M penicillin G respectively). When most of the penicillin substrates have been hydrolyzed to carboxylic acids, the fluorescence signal of the labeled enzyme will decline subsequently.
# [2] = molecular target: T2, E166C mutant of β-lactamase I (Bacillus cereus, UniProt P00809, E185C); experiment: Spectrophotometric substrate hydrolysis, steady-state kinetics; conditions: 50 mM potassium phosphate buffer pH 7.0, 20° C.
# T2 construct: made in house; host or cells: B. subtilis 1A304 (φ105MU331)
# T2 sequence (P00809 28-306 E185C): T1 sequence (P00809 28-306 E185C)
# Experimental: (§2) The hydrolytic activities of the wild-type β-lactamase I, E166C and E166Cf mutants towards penicillin G, penicillin V and ampicillin (Sigma) were monitored by the spectrophotometric method. The spectrophotometric measurements were performed on a Perkin Elmer Lambda Bio20 UV/Vis spectrometer. Substrate hydrolysis was monitored at a fixed wavelength: 235 nm for ampicillin, 232 nm for penicillin G and penicillin V. The initial rate of substrate hydrolysis occurring within 5 min was determined in duplicate at each of 6 different substrate concentrations in 50 mM potassium phosphate buffer (pH 7.0) at 20° C. The initial rates determined were then treated as described in Reference 5 to calculate the Michaelis constants (Km) and turnover numbers (kcat) using non-linear regression analysis (equation 1):
# (§3) [formula] where v is the initial rate of substrate hydrolysis, Vmax the maximum rate of reaction, [S] the initial substrate concentration, Km the Michaelis constant and kcat=Vmax/[Enzyme].
# (§4) The measured steady-state kinetic parameters for hydrolysis of penicillin G, penicillin V and ampicillin by the wild-type β-lactamase I, E166C and E166Cf mutants are summarized in Table 1.
# [3] = molecular target: T3, wild-type β-lactamase I (Bacillus cereus, UniProt P00809); experiment: as above; conditions: 50 mM potassium phosphate buffer pH 7.0, 20° C.
# T3 construct: made in house; host or cells: B. subtilis 1A304 (φ105MU331)
# Experimental: as §2, §3, §4
# [4] = molecular target: T4, E166Cf (fluorescein-labeled E166C mutant of β-lactamase I) (Bacillus cereus, UniProt P00809, E185C); experiment: as above
# T4 construct: made in house; host or cells: B. subtilis 1A304 (φ105MU331); then labelled chemically
# T4 sequence (P00809 28-306 E185C): T1 sequence (P00809 28-306 E185C)
# Experimental: as §2, §3, §4, §1
# [5] = E166Cf, 50 mM potassium phosphate buffer pH 7.0, 20° C.
# T3 sequence (P00809 28-306): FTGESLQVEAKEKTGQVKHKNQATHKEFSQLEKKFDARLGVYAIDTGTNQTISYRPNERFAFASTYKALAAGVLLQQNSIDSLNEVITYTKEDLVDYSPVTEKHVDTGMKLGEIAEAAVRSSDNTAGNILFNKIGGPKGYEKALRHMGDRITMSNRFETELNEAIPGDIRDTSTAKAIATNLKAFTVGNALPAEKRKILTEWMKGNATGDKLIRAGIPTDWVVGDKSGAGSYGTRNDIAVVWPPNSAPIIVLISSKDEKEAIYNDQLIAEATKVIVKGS
compound,measurement,setting,value
"CC1(C)S[C@@H]2[C@H](NC(=O)Cc3ccccc3)C(=O)N2[C@H]1C(=O)O [Penicillin G, penicillin G]",plateau time of fluorescence signal,[1]; 1.0×10^−4 M antibiotic,22 min
same,plateau time of fluorescence signal,[1]; 1.0×10^−5 M antibiotic,8 min
same,Km,[2],72 ± 3 µM
same,kcat,[2],2.07 ± 0.02 s⁻¹
same,Km,[3],48 ± 3 µM
same,kcat,[3],2612 ± 320 s⁻¹
same,substrate hydrolysis time determined by spectrophotometric assays,[4]; 1.0×10^−4 M antibiotic,20 min
same,substrate hydrolysis time determined by spectrophotometric assays,[4]; 1.0×10^−5 M antibiotic,7 min
same,Km,[4]; [5],213 ± 11 µM
same,kcat,[4]; [5],5.28 ± 0.09 s⁻¹
